Results: US9517244B2, “Therapeutic combinations for use in neoplasia” (University of Florida Research Foundation, Inc., priority 2011, dated 2016)
Like-named read-outs stand apart in the source and are kept apart here. Blank lines part the entries; values can stand above or below the compound they belong to.

Key:
[1] = tested on: U87MG; test: MTT assay, brain cancer cell line; assay type: cell-based; conditions: Homo sapiens, U-87 MG, 120 h, read-out: IC50 of TMZ
Method: (§1) The use of NSC-30049 as a chemopreventive agent for the treatment of brain cancer was also tested. NSC-30049 in combination with temozolomide was administered to brain cancer cell lines, including U118, U138, U87MG, A172, and T98 cell lines (Table 6). Cells were pretreated with the indicated concentrations of NSC-30049 followed by TMZ for 120 h. After treatment, cells were processed for the determination of viability by cell proliferation assay (MTT assay). The data from the graph was used for the determination of IC50, which is presented as the mean±SE of three different estimations. Increasing the concentration of NSC-30049 decreased the IC50 of temozolomide for all cell lines tested, regardless of whether they were MMR proficient or deficient.

[2] = tested on: U138; test: MTT assay, brain cancer cell line; assay type: cell-based; conditions: 120 h, read-out: IC50 of TMZ
Method: as §1

[3] = tested on: A172; test: MTT assay, brain cancer cell line; assay type: cell-based; conditions: Homo sapiens, A 172, 120 h, read-out: IC50 of TMZ
Method: as §1

[4] = tested on: U118; test: MTT assay, brain cancer cell line; assay type: cell-based; conditions: 120 h, read-out: IC50 of TMZ
Method: as §1

[5] = tested on: T98; test: MTT assay, brain cancer cell line; assay type: cell-based; conditions: Homo sapiens, T98, 120 h, read-out: IC50 of TMZ
Method: as §1

[6] = tested on: SW480; test: MTT assay, MMR-proficient colon cancer cell line; assay type: cell-based; conditions: Homo sapiens, SW480, 72 h, read-out: IC50 of TMZ
Method: (§2) The use of NSC-30049 as a chemopreventive agent for the treatment of colon cancer was also tested. In one experiment, NSC-30049 in combination with temozolomide was administered to colon cancer cell lines, including mismatch repair (MMR) proficient and MMR deficient cancer cell lines (Table 4). MMR proficient colon cancer cell lines tested included HCT-116+ch3, SW480, and HT29. MMR deficient cancer cell lines tested included HCT-116 and LoVo. Cells were pre-treated for 2 h with […] concentrations of NSC-30049 prior to treatment with temozolomide. After the treatment cells were allowed to grow for 72 hours. The cell growth inhibition was determined by MTT assay. Data presented are the mean±SE of three different estimations. The p value as compared to control of the Student's t-test is given in parenthesis. * p<0.05; ** p<0.01; *** p<0.001. Increasing the concentration of NSC-30049 decreased the IC50 of temozolomide for all cell lines tested, regardless of whether they were MMR proficient or deficient.

[7] = tested on: HT29; test: MTT assay, MMR-proficient colon cancer cell line; assay type: cell-based
Method: as §2
(§3) In addition to temozolomide, oxaliplatin is another chemotherapeutic agent used for the treatment of colon cancer. In another experiment, NSC-30049 in combination with oxaliplatin was administered to colon cancer cell lines, including mismatch repair (MMR) proficient and MMR deficient cancer cell lines (Table 5). MMR proficient colon cancer cell lines tested included HCT-116+ch3 and HT29. MMR deficient cancer cell lines tested included HCT-116 and LoVo. Cells were pre-treated with the indicated concentrations of NSC-33049 for 2 h followed by the treatment with different concentrations of oxaliplatin for additional 48 h. The cell growth inhibition was determined by MTT assay. Data presented are the mean±SE of three different estimations. The p value of Student's t-test as compared to the control is given in parenthesis (* p<0.05; ** p<0.01; *** p<0.001). Increasing the concentration of NSC-30049 decreased the IC50 of oxaliplatin for all cell lines tested, regardless of whether they were MMR proficient or deficient.

[8] = tested on: HCT-116 + ch3; test: MTT assay, MMR-proficient colon cancer cell line; assay type: cell-based
Method: as §2, §3

[9] = tested on: HCT-116; test: MTT assay, MMR-deficient colon cancer cell line; assay type: cell-based
Method: as §2, §3

[10] = tested on: LoVo; test: MTT assay, MMR-deficient colon cancer cell line; assay type: cell-based
Method: as §2, §3

[11] = tested on: colon cancer stem cells; test: cell growth inhibition of colon cancer stem cells; assay type: cell-based, human; conditions: alone, 1.25 μM, 72 h
Method: (§4) Cells were treated with 1.25 μM of NSC-30049 and 1.25 μM of OPT either alone or in combination for 72 h. Data are mean±SD of triplicate experiments. […] Cells were treated with 1.25 μM of NSC-30049 and 1.25 μM of OPT either alone or in combination for 72 h. Fold change in gene expression values is shown as mean±SD of three experiments and are normalized to GAPDH gene expression.
(§5) The effect of administration of NSC-30049 in combination with oxaliplatin (OPT) was also examined in human parental cancer cells and colon cancer stem cells (FIG. 9A). Cells were treated with 1.25 μM of NSC-30049 and […] of OPT either alone or in combination for 72 h. Cell growth inhibition was assayed. Data presented are mean±SD of triplicate experiments.

[12] = tested on: PANC1; test: MTT assay, pancreatic cancer cell line; assay type: cell-based, human; conditions: PANC1, 48 h, read-out: IC50 of Oxaliplatin
[13] = tested on: human parental cancer cells; test: cell growth inhibition of parental cancer cells; assay type: cell-based; conditions: alone, 1.25 μM, 72 h
Method: as §4, §5

[14] = tested on: BxPC3; test: MTT assay, pancreatic cancer cell line; assay type: cell-based, human; conditions: BxPC3, 48 h, read-out: IC50 of Oxaliplatin
[15] = Homo sapiens, HCT-116, 72 h, NSC-30049 0 μM, 72 h, read-out: IC50 of TMZ
[16] = Homo sapiens, HCT-116, 72 h, NSC-30049 0.5 μM, 72 h, read-out: IC50 of TMZ
[17] = Homo sapiens, HCT-116, 72 h, NSC-30049 1.0 μM, 72 h, read-out: IC50 of TMZ
[18] = Homo sapiens, HCT-116, 72 h, NSC-30049 2.5 μM, 72 h, read-out: IC50 of TMZ
[19] = NSC-30049 0 μM, 48 h, read-out: IC50 of oxaliplatin
[20] = NSC-30049 1.0 μM, 48 h, read-out: IC50 of oxaliplatin
[21] = NSC-30049 2.5 μM, 48 h, read-out: IC50 of oxaliplatin
[22] = NSC-30049 5.0 μM, 48 h, read-out: IC50 of oxaliplatin

IC50 ([1]; NSC-30049 0 μM): 493 ± 83.9 µM
IC50 ([1]; NSC-30049 1.0 μM): 33 ± 5.1 µM
IC50 ([1]; NSC-30049 2.5 μM): 19.9 ± 10.5 µM
IC50 ([1]; NSC-30049 5.0 μM): 13.7 ± 8.5 µM
IC50 ([2]; NSC-30049 0 μM): 432 ± 19.1 µM
IC50 ([2]; NSC-30049 1.0 μM): 278 ± 14.6 µM
IC50 ([2]; NSC-30049 2.5 μM): 3.8 ± 0.4 µM
IC50 ([2]; NSC-30049 5.0 μM): 0.8 ± 0.02 µM
IC50 ([3]; NSC-30049 0 μM): 154 ± 6.8 µM
IC50 ([3]; NSC-30049 1.0 μM): 89.5 ± 7.8 µM
IC50 ([3]; NSC-30049 2.5 μM): 82.9 ± 5.1 µM
IC50 ([3]; NSC-30049 5.0 μM): 75.1 ± 5.2 µM
IC50 ([4]; NSC-30049 0 μM): 136 ± 3.7 µM
IC50 ([4]; NSC-30049 1.0 μM): 78.4 ± 1.3 µM
IC50 ([4]; NSC-30049 2.5 μM): 14.5 ± 2.5 µM
IC50 ([4]; NSC-30049 5.0 μM): 1.1 ± 3 µM
IC50 ([5]; NSC-30049 0 μM): 554 ± 53.9 µM
IC50 ([5]; NSC-30049 1.0 μM): 511 ± 14.7 µM
IC50 ([5]; NSC-30049 2.5 μM): 382 ± 5.9 µM
IC50 ([5]; NSC-30049 5.0 μM): 245 ± 8.7 µM
IC50 ([6]; NSC-30049 0 μM): 377 ± 12 µM
IC50 ([6]; NSC-30049 0.5 μM): 325 ± 18 µM
IC50 ([6]; NSC-30049 1.0 μM): 167 ± 49 µM
IC50 ([6]; NSC-30049 2.5 μM): 0.47 ± 0.03 µM
IC50 ([7]; Homo sapiens, HT-29, 72 h, NSC-30049 0 μM, 72 h, read-out: IC50 of TMZ): 1450 ± 144 µM
IC50 ([7]; Homo sapiens, HT-29, 72 h, NSC-30049 0.5 μM, 72 h, read-out: IC50 of TMZ): 1270 ± 60 µM
IC50 ([7]; Homo sapiens, HT-29, 72 h, NSC-30049 1.0 μM, 72 h, read-out: IC50 of TMZ): 815 ± 93 µM
IC50 ([7]; Homo sapiens, HT-29, 72 h, NSC-30049 2.5 μM, 72 h, read-out: IC50 of TMZ): 248 ± 59 µM
IC50 ([7]; Homo sapiens, HT-29, 72 h, NSC-30049 5.0 μM, 72 h, read-out: IC50 of TMZ): 5.33 ± 0.07 µM
IC50 [8, 15]: 236 ± 23 µM
IC50 [8, 16]: 206 ± 13 µM
IC50 [8, 17]: 153 ± 10 µM
IC50 [8, 18]: 0.73 ± 0.04 µM
IC50 ([8]; Homo sapiens, HCT-116, 72 h, NSC-30049 5.0 μM, 72 h, read-out: IC50 of TMZ): 0.35 ± 0.01 µM
IC50 [9, 15]: 620 ± 11 µM
IC50 [9, 16]: 361 ± 10 µM
IC50 [9, 17]: 160 ± 63 µM
IC50 [9, 18]: 3.81 ± 0.11 µM
IC50 ([10]; Homo sapiens, 72 h, NSC-30049 0 μM, 72 h, read-out: IC50 of TMZ): 1106 ± 0.02 µM
IC50 ([10]; Homo sapiens, 72 h, NSC-30049 0.5 μM, 72 h, read-out: IC50 of TMZ): 366 ± 6 µM
IC50 ([10]; Homo sapiens, 72 h, NSC-30049 1.0 μM, 72 h, read-out: IC50 of TMZ): 8 ± 0.8 µM
IC50 ([10]; Homo sapiens, 72 h, NSC-30049 2.5 μM, 72 h, read-out: IC50 of TMZ): 3.82 ± 0.09 µM
SMILES: Cn1nnc2c(C(N)=O)ncn2c1=O [TMZ, Temozolomide]

SMILES: O=C1[O][Pt]2([NH][C@@H]3CCCC[C@H]3[NH]2)[O]C1=O [Oxaliplatin, oxaliplatin]
inhibition of growth [11]: ~40%
IC50 ([12]; NSC-30049 0 μM): 14.5 ± 0.38 µM
IC50 ([12]; NSC-30049 0.5 μM): 0.38 ± 0.06 µM
IC50 ([12]; NSC-30049 1.0 μM): 0.13 ± 0.04 µM
IC50 ([12]; NSC-30049 2.5 μM): 0.37 ± 0.22 µM
IC50 [7, 19]: 0.92 ± 0.03 µM
IC50 [7, 20]: 0.82 ± 0.06 µM
IC50 [7, 21]: 0.59 ± 0.02 µM
IC50 [7, 22]: 0.03 µM
IC50 [8, 19]: 5.83 ± 0.36 µM
IC50 [8, 20]: 4.98 ± 0.17 µM
IC50 [8, 21]: 0.91 ± 0.12 µM
IC50 [8, 22]: 0.03 µM
inhibition of growth [13]: ~65%
IC50 ([14]; NSC-30049 0 μM): 2 ± 0.4 µM
IC50 ([14]; NSC-30049 0.5 μM): 0.71 ± 0.39 µM
IC50 ([14]; NSC-30049 1.0 μM): 0.33 ± 0.06 µM
IC50 ([14]; NSC-30049 2.5 μM): 0.01 µM
IC50 [9, 19]: 1.5 ± 0.01 µM
IC50 [9, 20]: 0.78 ± 0.02 µM
IC50 [9, 21]: 0.03 µM
IC50 [9, 22]: 0.02 µM
IC50 [10, 19]: 0.75 ± 0.02 µM
IC50 ([10]; NSC-30049 0.5 μM, 48 h, read-out: IC50 of oxaliplatin): 0.59 ± 0.04 µM
IC50 [10, 20]: 0.07 ± 0.02 µM
IC50 [10, 21]: 0.03 µM
